{"source": "patent US20230123135A1", "about": "(priority 2020, published 2023)", "key": {"IL-6 [1]": {"tested_on": "IL-6", "experiment": "animal or person", "type": "in vivo, Mus musculus (BALB/c)", "details": "for inhibition of IL-6 production (%) at 3 mg/kg: Mus musculus, read-out: inhibitory rate of IL-6 production (negative control as 100%)"}, "TNF-α [2]": {"tested_on": "TNF-α", "experiment": "animal or person", "type": "in vivo, Mus musculus (BALB/c)", "set-up": "TNF-α production in BALF: unit not given here", "details": "for inhibition of TNF-α production at 3 mg/kg: Mus musculus, read-out: inhibitory rate of TNF-α production (negative control as 100%)"}, "IL-1β [3]": {"tested_on": "IL-1β", "experiment": "animal or person", "type": "in vivo, Mus musculus (BALB/c)", "details": "for Inhibition rate of IL-1β production (%) at 3 mg/kg: Mus musculus, read-out: inhibitory rate of IL-1β production (negative control as 100%); for IL-1 beta Mean AUC (baseline-adjusted): mouse, in vivo"}, "[4]": {"tested_on": "primary rat peritoneal macrophages"}, "SARS-CoV-2": {"tested_on": "SARS-CoV-2", "experiment": "microbe, parasite or virus in culture", "type": "cell-based", "details": "for pIC50: read-out: IC50, inhibition of SARS-CoV-2 infection"}, "in vitro": {"experiment": "in vitro", "details": "African green monkey"}, "[5]": {"tested_on": "primary rat peritoneal macrophages", "remark": "listed apart in the source"}, "COX-2 mRNA": {"tested_on": "COX-2 mRNA", "type": "cell-based, mouse"}, "TNF-α [6]": {"tested_on": "TNF-α", "type": "cell-based, rat", "details": "24 h, LPS 100 ng/mL; read-out: IC50, secretion of TNF-α"}, "NO production": {"tested_on": "NO production", "type": "cell-based, mouse", "details": "read-out: IC50 for inhibition of NO production"}, "SARS-CoV-2 infection": {"tested_on": "SARS-CoV-2 infection", "set-up": "species or system person", "details": "in vivo"}, "PGE2 production": {"tested_on": "PGE2 production", "type": "cell-based, mouse"}, "IκB": {"tested_on": "IκB", "experiment": "Western blot, IκB degradation in RAW264.7 macrophages", "type": "cell-based, mouse", "details": "2.5-10 μM 30 min pretreatment, LPS 1 μg/mL 15 min"}, "IFN-β mRNA": {"tested_on": "IFN-β mRNA", "type": "cell-based, mouse"}, "TNF-α [7]": {"tested_on": "TNF-α", "type": "cell-based, mouse"}, "IL-6 [8]": {"tested_on": "IL-6", "type": "cell-based, rat"}, "COX-2": {"tested_on": "COX-2", "type": "cell-based, mouse"}, "[9]": {"tested_on": "NF-κB transcriptional activity", "type": "cell-based, mouse"}, "iNOS": {"tested_on": "iNOS", "type": "cell-based, mouse"}, "IL-1β [10]": {"tested_on": "IL-1β", "type": "cell-based, rat"}, "iNOS mRNA": {"tested_on": "iNOS mRNA", "type": "cell-based, mouse"}, "IL-1β [11]": {"tested_on": "IL-1β", "type": "cell-based, mouse"}, "[12]": {"details": "in vivo"}, "NF-κB": {"tested_on": "NF-κB", "experiment": "Western blot, NF-κB (p50, p65) protein in RAW264.7 macrophages", "type": "cell-based, mouse", "details": "2.5-10 μM 30 min pretreatment, LPS 1 μg/mL 15 min"}, "human telomerase": {"tested_on": "human telomerase", "details": "cited from earlier work"}, "TNF-α mRNA": {"tested_on": "TNF-α mRNA", "type": "cell-based, mouse"}, "IL-1β mRNA": {"tested_on": "IL-1β mRNA", "type": "cell-based, mouse"}, "[13]": {"details": "Severe acute respiratory syndrome coronavirus 2, Vero, 24 h"}, "[14]": {"details": "3 μM, in the absence of significant cell death"}}, "note": "pIC50: −log10 of the molar value. Entries after “also recorded” stand apart in the source; their conditions may differ. Like-named read-outs stand apart in the source and are kept apart here."}
{"molecule": "C[C@@H]1C[C@H]2[C@@H]3CCC4=CC(=O)C=C[C@]4(C)[C@@]3(F)[C@@H](O)C[C@]2(C)[C@@]1(O)C(=O)CO", "note": "[Dexamethasone]", "values": [{"measurement": "inhibition of IL-6 production (%) at 3 mg/kg", "setting": "IL-6 [1]; 1 h", "result": 59, "unit": "%"}, {"measurement": "inhibition of IL-6 production (%) at 3 mg/kg", "setting": "IL-6 [1]; 2 h", "result": 43, "unit": "%"}, {"measurement": "inhibition of IL-6 production (%) at 3 mg/kg", "setting": "IL-6 [1]; 4 h", "result": 59, "unit": "%"}, {"measurement": "inhibition of IL-6 production (%) at 3 mg/kg", "setting": "IL-6 [1]; 6 h", "result": 20, "unit": "%"}, {"measurement": "inhibition of IL-6 production (%) at 3 mg/kg", "setting": "IL-6 [1]; 12 h", "result": 16, "unit": "%"}, {"measurement": "inhibition of IL-6 production (%) at 3 mg/kg", "setting": "IL-6 [1]; 24 h", "result": 51, "unit": "%"}, {"measurement": "IL-6 Mean AUC (baseline-adjusted)", "setting": "IL-6 [1]; mouse, in vivo", "result": 54684.9, "unit": "pg·h/mL"}, {"measurement": "inhibition of TNF-α production at 3 mg/kg", "setting": "TNF-α [2]; 1 h", "result": 25, "unit": "%"}, {"measurement": "inhibition of TNF-α production at 3 mg/kg", "setting": "TNF-α [2]; 2 h", "result": 28, "unit": "%"}, {"measurement": "inhibition of TNF-α production at 3 mg/kg", "setting": "TNF-α [2]; 4 h", "result": 33, "unit": "%"}, {"measurement": "inhibition of TNF-α production at 3 mg/kg", "setting": "TNF-α [2]; 6 h", "result": 28, "unit": "%"}, {"measurement": "inhibition of TNF-α production at 3 mg/kg", "setting": "TNF-α [2]; 12 h", "result": 9, "unit": "%"}, {"measurement": "TNF-alpha Mean AUC (baseline-adjusted)", "setting": "TNF-α [2]; mouse, in vivo", "result": 2815.4, "unit": "pg·h/mL"}, {"measurement": "Inhibition rate of IL-1β production (%) at 3 mg/kg", "setting": "IL-1β [3]; 4 h", "result": 69, "unit": "%"}, {"measurement": "Inhibition rate of IL-1β production (%) at 3 mg/kg", "setting": "IL-1β [3]; 6 h", "result": 67, "unit": "%"}, {"measurement": "Inhibition rate of IL-1β production (%) at 3 mg/kg", "setting": "IL-1β [3]; 12 h", "result": 77, "unit": "%"}, {"measurement": "IL-1 beta Mean AUC (baseline-adjusted)", "setting": "IL-1β [3]", "result": 2637.5, "unit": "pg·h/mL"}]}
{"molecule": "C[C@@H]1CC[C@@]2(OC1)O[C@H]1[C@@H](O)[C@H]3[C@@H]4CC[C@H]5C[C@@H](O[C@@H]6O[C@H](CO)[C@H](O[C@@H]7O[C@H](CO)[C@@H](O)[C@H](O[C@@H]8OC[C@@H](O)[C@H](O)[C@H]8O)[C@H]7O[C@@H]7O[C@H](CO)[C@H](O)[C@H](O[C@@H]8O[C@H](CO)[C@@H](O)[C@H](O)[C@H]8O)[C@H]7O)[C@H](O)[C@H]6O)[C@H](O)C[C@]5(C)[C@H]4CC[C@]3(C)[C@H]1[C@@H]2C", "note": "[Digitonin, reference compound]", "values": [{"measurement": "cytotoxicity (CytoTox-GLO) compared with vehicle", "setting": "[4]", "result": "high toxicity"}]}
{"molecule": "Cc1cccc(C)c1OCC(=O)N[C@@H](Cc1ccccc1)[C@@H](O)C[C@H](Cc1ccccc1)NC(=O)[C@H](C(C)C)N1CCCNC1=O", "note": "[lopinavir]", "values": [{"measurement": "Selectivity index (SI), CC50/IC50", "setting": "SARS-CoV-2", "result": 3.81}, {"measurement": "pIC50", "setting": "SARS-CoV-2; [13]", "result": 4.88}, {"measurement": "CC50", "setting": "in vitro", "result": "> 50", "unit": "µM"}]}
{"molecule": "CCC(CC)COC(=O)[C@H](C)N[P@](=O)(OC[C@H]1O[C@@](C#N)(c2ccc3c(N)ncnn23)[C@H](O)[C@@H]1O)Oc1ccccc1", "note": "[remdesivir]", "values": [{"measurement": "pIC50", "setting": "SARS-CoV-2; [13]", "result": 5.28}, {"measurement": "CC50", "setting": "in vitro", "result": "> 50", "unit": "µM"}]}
{"molecule": "Triton-X [reference compound]", "values": [{"measurement": "cell viability (MTT) compared with vehicle", "setting": "[5]", "result": "low cell viability"}]}
{"molecule": "sodium meta-arsenite [SMA]", "values": [{"measurement": "inhibitory rate of IL-6 production (negative control as 100%)", "setting": "IL-6 [1]; mouse, in vivo", "result": 60, "unit": "%"}, {"measurement": "IL-6 Mean AUC (baseline-adjusted)", "setting": "IL-6 [1]; mouse, in vivo, 1.03 mg/kg", "result": 165404.0, "unit": "pg·h/mL"}, {"measurement": "IL-6 Mean AUC (baseline-adjusted)", "setting": "IL-6 [1]; mouse, in vivo, 1.54 mg/kg", "result": 128034.8, "unit": "pg·h/mL"}, {"measurement": "IL-6 Mean AUC (baseline-adjusted)", "setting": "IL-6 [1]; mouse, in vivo, 2.05 mg/kg", "result": 78963.1, "unit": "pg·h/mL"}, {"measurement": "COX-2 mRNA expression", "setting": "COX-2 mRNA", "result": "not influenced"}, {"measurement": "pIC50", "setting": "SARS-CoV-2", "result": 5.37}, {"measurement": "pIC50", "setting": "TNF-α [6]", "result": 5.64}, {"measurement": "pIC50", "setting": "NO production", "result": "~5.54"}, {"measurement": "symptoms of SARS-CoV-2 infection after taking SMA", "setting": "SARS-CoV-2 infection", "result": "effective in alleviating or treating the symptoms of SARS-CoV-2 infection; also recorded: Chest tightness and pain relieved; also recorded: Temporary relief of symptoms"}, {"measurement": "inhibition of PGE2 production", "setting": "PGE2 production", "result": 20, "unit": "%"}, {"measurement": "IκB degradation", "setting": "IκB", "result": "markedly inhibited"}, {"measurement": "expression of IFN-β mRNA", "setting": "IFN-β mRNA", "result": "no effect"}, {"measurement": "TNF-α protein expression", "setting": "TNF-α [7]", "result": "significantly inhibited"}, {"measurement": "TNF-α production in BALF", "setting": "TNF-α [2]; mouse, in vivo", "result": 794}, {"measurement": "TNF-alpha Mean AUC (baseline-adjusted)", "setting": "TNF-α [2]; mouse, in vivo, 1.03 mg/kg", "result": 7984.4, "unit": "pg·h/mL"}, {"measurement": "TNF-alpha Mean AUC (baseline-adjusted)", "setting": "TNF-α [2]; mouse, in vivo, 1.54 mg/kg", "result": 6064.8, "unit": "pg·h/mL"}, {"measurement": "TNF-alpha Mean AUC (baseline-adjusted)", "setting": "TNF-α [2]; mouse, in vivo, 2.05 mg/kg", "result": 4215.8, "unit": "pg·h/mL"}, {"measurement": "secretion of IL-6", "setting": "IL-6 [8]; [14]", "result": "complete inhibition"}, {"measurement": "pIC50", "setting": "IL-6 [8]; 24 h, LPS 100 ng/mL, read-out: IC50, secretion of IL-6", "result": 6.30}, {"measurement": "COX-2 protein expression", "setting": "COX-2", "result": "slightly inhibited"}, {"measurement": "IL-1 beta Mean AUC (baseline-adjusted)", "setting": "IL-1β [3]; 1.03 mg/kg", "result": 4272.9, "unit": "pg·h/mL"}, {"measurement": "IL-1 beta Mean AUC (baseline-adjusted)", "setting": "IL-1β [3]; 1.54 mg/kg", "result": 3738.3, "unit": "pg·h/mL"}, {"measurement": "IL-1 beta Mean AUC (baseline-adjusted)", "setting": "IL-1β [3]; 2.05 mg/kg", "result": 3045.8, "unit": "pg·h/mL"}, {"measurement": "LPS-induced SEAP expression (NF-κB transcriptional activity)", "setting": "[9]", "result": "inhibited LPS-induced SEAP expression significantly"}, {"measurement": "iNOS protein expression", "setting": "iNOS", "result": "significantly inhibited"}, {"measurement": "secretion of IL-1β", "setting": "IL-1β [10]; [14]", "result": "complete inhibition"}, {"measurement": "pIC50", "setting": "IL-1β [10]; 24 h, LPS 100 ng/mL, read-out: IC50, secretion of IL-1β", "result": 6.10}, {"measurement": "iNOS mRNA expression", "setting": "iNOS mRNA", "result": "significantly inhibited"}, {"measurement": "IL-1β protein expression", "setting": "IL-1β [11]", "result": "significantly inhibited"}, {"measurement": "time until fully metabolised and excreted from the body after taking it", "setting": "[12]", "result": 72, "unit": "h"}, {"measurement": "cell viability (MTT) compared with vehicle", "setting": "[5]; 24 h, LPS 100 ng/mL", "result": "concentration-dependent decrease in viability"}, {"measurement": "pIC50", "setting": "[5]; read-out: IC50 for cell viability, 24 h, LPS 100 ng/mL, MTT", "result": 5.24}, {"measurement": "NF-κB protein level", "setting": "NF-κB", "result": "markedly decreased"}, {"measurement": "inhibition of human telomerase", "setting": "human telomerase", "result": "potent inhibitor"}, {"measurement": "mRNA level of TNF-α", "setting": "TNF-α mRNA", "result": "significantly decreased"}, {"measurement": "cytotoxicity (CytoTox-GLO) compared with vehicle", "setting": "[4]; 24 h, LPS 100 ng/mL", "result": "concentration-dependent increase in cytotoxicity"}, {"measurement": "CC50", "setting": "Vero cells", "result": 21.1, "unit": "µM"}, {"measurement": "expression of IL-1β mRNA", "setting": "IL-1β mRNA", "result": "no effect"}]}
